From article PMC9549968 (The Journal of investigative dermatology, 2021) come the findings set out here.

Positions of bridges follow the written chain, without caps; N, C: chain ends. No end group written: not given here.

One experiment deals with Mrgpra3-Cre-GFP neurons. In words: Whole-cell patch-clamp recording of Mrgpra3-Cre-GFP neurons. The conditions noted are these: n=8/8. Type of experiment: cell-based, mouse.
The test system of another experiment is mice. In words: Itch behavior: scratching bouts after intradermal injection. Type of experiment: in vivo, mouse. The conditions noted are these: for itch-responses (scratching bouts): mice, intradermal injection 1mM, 10μL, versus saline, n=8-12.
The target in another experiment is MRGPRX1 (Homo sapiens, UniProt Q96LB2). Put plainly: FLIPR calcium imaging, HEK293 expressing MRGPRX1. The experiment is classed as cell-based. The conditions noted are these: SEM.
MRGPRX1, sequence (Q96LB2 whole entry): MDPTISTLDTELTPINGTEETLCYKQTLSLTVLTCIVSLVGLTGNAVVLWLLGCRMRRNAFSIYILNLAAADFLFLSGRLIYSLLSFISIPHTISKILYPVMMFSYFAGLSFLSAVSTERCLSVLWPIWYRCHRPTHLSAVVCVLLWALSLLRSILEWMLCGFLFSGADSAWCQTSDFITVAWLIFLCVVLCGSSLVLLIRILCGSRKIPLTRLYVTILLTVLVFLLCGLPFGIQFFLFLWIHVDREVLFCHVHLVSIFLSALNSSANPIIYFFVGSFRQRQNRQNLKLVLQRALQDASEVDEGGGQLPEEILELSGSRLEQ
A further experiment deals with T1, Mrgpra1 (Mus musculus, UniProt Q91WW5).
T1 sequence (Q91WW5 1-304): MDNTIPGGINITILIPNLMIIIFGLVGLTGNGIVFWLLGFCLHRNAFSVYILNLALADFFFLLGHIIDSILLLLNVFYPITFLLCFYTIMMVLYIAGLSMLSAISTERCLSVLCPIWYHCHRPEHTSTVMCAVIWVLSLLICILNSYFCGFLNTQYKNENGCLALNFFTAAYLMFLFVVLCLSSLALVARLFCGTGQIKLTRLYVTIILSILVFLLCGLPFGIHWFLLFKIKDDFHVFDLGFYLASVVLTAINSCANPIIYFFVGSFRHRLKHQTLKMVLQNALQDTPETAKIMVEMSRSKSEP
Put plainly: FLIPR calcium imaging, HEK293 expressing Mrgpra1. The experiment is classed as cell-based. The conditions noted are these: SEM.

The target in the next experiment is T2, Mrgpra3 (Mus musculus, UniProt Q91WW3).
T2 sequence (Q91WW3 1-302): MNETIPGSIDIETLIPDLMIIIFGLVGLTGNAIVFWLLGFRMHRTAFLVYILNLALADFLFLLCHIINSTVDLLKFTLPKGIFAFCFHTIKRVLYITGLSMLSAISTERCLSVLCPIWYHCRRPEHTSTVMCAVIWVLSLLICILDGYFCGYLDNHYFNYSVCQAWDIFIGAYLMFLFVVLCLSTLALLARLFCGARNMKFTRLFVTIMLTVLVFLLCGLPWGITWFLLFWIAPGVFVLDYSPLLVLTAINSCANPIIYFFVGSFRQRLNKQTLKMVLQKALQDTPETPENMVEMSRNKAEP
Put plainly: FLIPR calcium imaging, HEK293 expressing Mrgpra3. Type of experiment: cell-based.

The target in the next experiment is T3, Mrgprb2 (Mus musculus, UniProt Q3KNA1).
T3 sequence (Q3KNA1 1-338): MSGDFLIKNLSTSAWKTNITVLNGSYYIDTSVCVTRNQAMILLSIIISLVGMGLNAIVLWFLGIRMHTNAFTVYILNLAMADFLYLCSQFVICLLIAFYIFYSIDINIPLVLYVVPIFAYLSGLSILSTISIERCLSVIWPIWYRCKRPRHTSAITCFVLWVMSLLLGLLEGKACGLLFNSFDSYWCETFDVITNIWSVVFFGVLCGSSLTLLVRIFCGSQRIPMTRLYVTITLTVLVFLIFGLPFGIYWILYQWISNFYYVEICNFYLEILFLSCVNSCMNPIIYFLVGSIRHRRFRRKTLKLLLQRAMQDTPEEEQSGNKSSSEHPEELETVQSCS
Put plainly: FLIPR calcium imaging, HEK293 expressing Mrgprb2. Type of experiment: cell-based.

The target in the next experiment is T4, Mrgpra2b (Mus musculus, UniProt Q91WW4).
T4 sequence (Q91WW4 1-305): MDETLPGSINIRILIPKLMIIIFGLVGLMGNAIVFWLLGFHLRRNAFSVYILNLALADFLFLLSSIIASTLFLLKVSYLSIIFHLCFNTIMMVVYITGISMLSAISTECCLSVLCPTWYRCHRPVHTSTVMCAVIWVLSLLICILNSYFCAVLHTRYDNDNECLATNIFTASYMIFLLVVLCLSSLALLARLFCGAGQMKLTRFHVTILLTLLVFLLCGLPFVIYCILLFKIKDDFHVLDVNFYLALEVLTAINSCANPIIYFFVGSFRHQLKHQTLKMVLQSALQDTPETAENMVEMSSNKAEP
Put plainly: FLIPR calcium imaging, HEK293 expressing Mrgpra2b. The experiment is classed as cell-based.

The target of a further experiment is T5, Mrgprc11 (Mus musculus, UniProt Q8CIP3).
T5 sequence (Q8CIP3 1-322): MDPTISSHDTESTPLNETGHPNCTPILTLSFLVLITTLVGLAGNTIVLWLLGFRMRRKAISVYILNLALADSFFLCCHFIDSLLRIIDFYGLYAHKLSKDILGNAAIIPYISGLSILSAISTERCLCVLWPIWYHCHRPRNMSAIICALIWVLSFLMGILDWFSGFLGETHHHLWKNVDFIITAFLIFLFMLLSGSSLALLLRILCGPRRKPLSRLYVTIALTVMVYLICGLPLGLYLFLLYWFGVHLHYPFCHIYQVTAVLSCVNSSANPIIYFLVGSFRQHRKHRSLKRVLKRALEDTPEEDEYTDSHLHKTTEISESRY
In words: FLIPR calcium imaging, HEK293 expressing Mrgprc11. Type of experiment: cell-based.

The next experiment has as its system DRG neurons. In words: Calcium imaging of cultured DRG neurons. The note with it: 352 neurons imaged. Type of experiment: cell-based, mouse.
The next experiment has as its target T6, MRGPRX2 (Homo sapiens, UniProt Q96LB1).
T6 sequence (Q96LB1 1-330): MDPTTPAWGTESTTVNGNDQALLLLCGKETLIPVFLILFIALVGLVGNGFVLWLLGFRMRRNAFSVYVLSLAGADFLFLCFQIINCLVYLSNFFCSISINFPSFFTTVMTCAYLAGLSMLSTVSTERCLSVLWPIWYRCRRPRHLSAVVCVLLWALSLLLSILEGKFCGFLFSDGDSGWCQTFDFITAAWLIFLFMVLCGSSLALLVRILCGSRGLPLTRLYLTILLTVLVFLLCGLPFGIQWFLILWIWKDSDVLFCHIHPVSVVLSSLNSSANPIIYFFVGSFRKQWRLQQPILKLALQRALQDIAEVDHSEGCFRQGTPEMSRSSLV
In words: FLIPR calcium imaging, HEK293 expressing MRGPRX2. The note with it: SEM. The experiment is classed as cell-based.

The target of another experiment is MRGPRX3 (Homo sapiens, UniProt Q96LB0). In words: FLIPR calcium imaging, HEK293 expressing MRGPRX3. Type of experiment: cell-based.
MRGPRX3, sequence (Q96LB0 whole entry): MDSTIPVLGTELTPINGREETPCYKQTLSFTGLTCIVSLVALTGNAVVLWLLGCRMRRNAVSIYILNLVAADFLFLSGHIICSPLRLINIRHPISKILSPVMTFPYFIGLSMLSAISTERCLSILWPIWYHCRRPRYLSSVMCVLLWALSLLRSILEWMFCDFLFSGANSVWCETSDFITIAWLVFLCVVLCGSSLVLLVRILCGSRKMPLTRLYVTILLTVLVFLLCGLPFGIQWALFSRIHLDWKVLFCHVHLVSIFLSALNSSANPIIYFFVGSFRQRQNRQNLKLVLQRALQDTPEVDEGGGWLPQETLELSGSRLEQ

For the compound `CCN(CC)CCCC(C)Nc1ccnc2cc(Cl)ccc12` (stereo not drawn) [CQ, chloroquine, reference compound], the “action potential discharges in Mrgpra3-Cre-GFP neurons” value in the experiment with Mrgpra3-Cre-GFP neurons (100μM) is listed as “evoked action potential discharges”.
Consider “Defb1: recombinant mouse β-defensin, constitutively highly expressed in skin (DQYKCLQHGGFCLRSSCPSNTKLQGTCKPDKPNCCKS; ends and bridges not checked; cysteine pairing not given here; UniProt P56386 33-69, looked up)”, for which the “itch-responses (scratching bouts)” value with mice is “not significantly different from saline injection”.
Consider “FLPKTLRKFFCRIRGGRCAVLNCLGKEEQIGRCSNSGRKCCRKKK (disulfide 11-40, 18-33, 23-41) [Defb14]”, for which the EC50 (as a rule, the concentration giving half of the maximal effect) on MRGPRX1 turned out to be 610 ± 170 nM; on Mrgpra1 it was 620 ± 160 nM; at Mrgpra3, 1000 ± 180 nM; at Mrgprb2 it was 1700 ± 450 nM; at Mrgpra2b, 19400 ± 8600 nM; on Mrgprc11, 21600 ± 11700 nM. For the same compound, the “Defb14 induced scratching in mast-cell deficient mice” value in the experiment on mice (Mcpt5-Cre::Rosa-stop-DTA mice versus wild-type controls, 1mM, p=0.87) was “did not attenuate”. Moreover, in the experiment with mice (Mrgpra3-Cre::Rosa-stop-DTA mice (n=14) versus controls (n=12), 1mM, p=0.007), the “scratching responses in mice with ablated Mrgpra3-neurons” value is “significantly attenuated”. In addition, the “itch-responses (scratching bouts)” value in the experiment with mice is given as “evoked the most intense itch phenotype”. The “Defb14-responsive neurons that responded to CQ” value in the experiment with DRG neurons (cultured mouse DRG neurons, AAV9-GCaMP6f) is 46/55. The “calcium response of DRG neurons” value in the experiment on DRG neurons (dissociated mouse DRG neurons expressing GCaMP6f) was “induced calcium increases in DRG neurons”. In addition, the “action potential discharges in Mrgpra3-Cre-GFP neurons” value in the experiment on Mrgpra3-Cre-GFP neurons (1μM) is listed as “evoked action potential discharges”.
For “GIGDPVTCLKSGAICHPVFCPRRYKQIGTCGLPGTKCCKKP (disulfide 8-37, 15-30, 20-38) [DEFB4]”, the concentration giving a half-maximal response (EC50) at MRGPRX1 was 58300 ± 18000 nM; on MRGPRX2 it was 17500 ± 3800 nM.
In the case of “GIINTLQKYYCRVRGGRCAVLSCLPKEEQIGKCSTRGRKCCRRKK (disulfide 11-40, 18-33, 23-41) [DEFB103]”, the results for the EC50 on MRGPRX1, at MRGPRX2 and on MRGPRX3 were 280 ± 50 nM, 420 ± 110 nM and 7400 ± 1900 nM, respectively. Besides, the “activation of LAD2 cells, calcium imaging” value in the experiment with LAD2 cells (peptide 1μM, compared with DEFB4) is “activated more LAD2 cells and evoked stronger calcium influx than the DEFB4”. In the experiment on LAD2 cells (ratio of EC50s, LAD2 calcium imaging), the “potency of DEFB103 relative to DEFB4 in LAD2 cells” value is listed as “about 10 fold”.
Take “KKINNPVSCLRKGGRCWNRCIGNTRQIGSCGVPFLKCCKRK (disulfide 9-37, 16-30, 20-38) [Defb3]”: the 50% effective concentration (EC50) was 2700 ± 600 nM at Mrgpra1 and 11500 ± 3500 nM at Mrgprb2. In the experiment with mice, the “itch-responses (scratching bouts)” value is recorded as “evoked a strong itch phenotype”.
